Source: US20240228463A1, “SODIUM CHANNEL INHIBITORS AND METHODS OF DESIGNING SAME” (Genentech, Inc., priority 2021, published 2024)
Structures can show the parent of a compound that is named as a salt.

Biological target: T1, hNaV1.7 (Homo sapiens, UniProt Q15858)
T1 construct: expressed in transfected cells
Experiment: Patch voltage clamp electrophysiology (EP), Syncropatch 384PE, Nav1.7 in CHO cells;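 also: Nav1.7 stably expressed from cDNA in CHO cells, holding potential of −50 mV kept for the entire experiment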
Type: cell-based
Conditions: holding potential −50 mV, inhibition based on 7.5 min compound incubation, read-out: hNaV1.7 EP_SP

T1 sequence (Q15858 1-1977 isoform Q15858-3): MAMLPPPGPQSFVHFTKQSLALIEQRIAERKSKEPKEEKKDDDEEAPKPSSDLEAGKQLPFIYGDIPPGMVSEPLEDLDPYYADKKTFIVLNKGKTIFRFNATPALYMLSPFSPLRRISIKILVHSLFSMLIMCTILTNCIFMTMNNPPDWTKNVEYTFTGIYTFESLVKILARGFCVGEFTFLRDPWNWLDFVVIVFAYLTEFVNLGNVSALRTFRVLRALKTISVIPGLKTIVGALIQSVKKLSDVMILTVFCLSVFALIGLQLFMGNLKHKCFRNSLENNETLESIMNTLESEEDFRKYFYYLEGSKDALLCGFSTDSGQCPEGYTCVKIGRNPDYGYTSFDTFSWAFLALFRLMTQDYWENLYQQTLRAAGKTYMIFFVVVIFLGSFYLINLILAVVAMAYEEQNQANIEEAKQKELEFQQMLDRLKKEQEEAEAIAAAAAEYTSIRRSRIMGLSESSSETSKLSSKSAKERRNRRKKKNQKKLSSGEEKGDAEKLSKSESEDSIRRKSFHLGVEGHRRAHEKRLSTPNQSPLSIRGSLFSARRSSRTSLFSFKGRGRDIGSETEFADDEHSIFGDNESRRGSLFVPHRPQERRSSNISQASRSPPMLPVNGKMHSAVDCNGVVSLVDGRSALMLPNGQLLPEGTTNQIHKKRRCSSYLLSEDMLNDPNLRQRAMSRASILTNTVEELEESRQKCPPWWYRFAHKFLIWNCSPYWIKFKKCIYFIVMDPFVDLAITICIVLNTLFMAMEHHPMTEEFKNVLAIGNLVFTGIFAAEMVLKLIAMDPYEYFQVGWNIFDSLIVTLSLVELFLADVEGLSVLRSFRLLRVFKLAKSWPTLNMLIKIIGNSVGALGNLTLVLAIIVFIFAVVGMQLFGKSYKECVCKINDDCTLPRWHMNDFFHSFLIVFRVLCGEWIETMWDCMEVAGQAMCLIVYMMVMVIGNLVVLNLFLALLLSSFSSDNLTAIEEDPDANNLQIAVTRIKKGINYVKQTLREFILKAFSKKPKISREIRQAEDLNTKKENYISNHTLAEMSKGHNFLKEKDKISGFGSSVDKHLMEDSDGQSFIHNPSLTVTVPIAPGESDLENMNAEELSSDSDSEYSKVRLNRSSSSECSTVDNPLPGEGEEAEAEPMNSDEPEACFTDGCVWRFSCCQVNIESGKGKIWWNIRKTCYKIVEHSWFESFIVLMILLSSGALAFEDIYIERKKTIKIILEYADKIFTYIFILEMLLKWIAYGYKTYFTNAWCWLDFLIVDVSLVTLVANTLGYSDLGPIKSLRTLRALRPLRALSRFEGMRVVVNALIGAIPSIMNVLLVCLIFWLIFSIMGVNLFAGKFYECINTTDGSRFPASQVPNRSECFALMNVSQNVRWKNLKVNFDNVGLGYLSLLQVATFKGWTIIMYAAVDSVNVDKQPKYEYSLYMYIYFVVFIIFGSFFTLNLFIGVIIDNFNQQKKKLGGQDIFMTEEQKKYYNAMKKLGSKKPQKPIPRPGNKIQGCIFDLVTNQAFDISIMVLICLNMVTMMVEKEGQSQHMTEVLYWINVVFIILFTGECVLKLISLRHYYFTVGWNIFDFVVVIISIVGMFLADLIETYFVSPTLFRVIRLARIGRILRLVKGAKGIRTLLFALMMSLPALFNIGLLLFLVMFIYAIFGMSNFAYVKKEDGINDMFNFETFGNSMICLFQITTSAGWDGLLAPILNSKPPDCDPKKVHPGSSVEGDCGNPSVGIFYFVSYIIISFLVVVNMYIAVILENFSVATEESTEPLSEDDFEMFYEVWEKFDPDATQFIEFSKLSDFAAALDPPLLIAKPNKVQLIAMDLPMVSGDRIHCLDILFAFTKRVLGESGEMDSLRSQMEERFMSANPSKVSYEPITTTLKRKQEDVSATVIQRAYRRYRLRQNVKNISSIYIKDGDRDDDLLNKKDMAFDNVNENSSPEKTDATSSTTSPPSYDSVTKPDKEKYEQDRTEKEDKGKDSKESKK

SMILES | IC50
COC[C@@H](C)S(=O)(=O)NC(=O)c1cc(Cl)c(OCC2CCCC2)cc1F (single isomer, unassigned) [Example 249] | 0.11 µM
C[C@H]1C[C@@H]1S(=O)(=O)NC(=O)c1cc(Cl)c(OCC2CCCC2)cc1F (single isomer, unassigned) [Example 250] | 0.0098 µM
C[C@@H]1C[C@H]1S(=O)(=O)NC(=O)c1cc(Cl)c(OCC2CCCC2)cc1F (single isomer, unassigned) [Example 251] | 0.016 µM
CC[C@H](C)S(=O)(=O)NC(=O)c1cc(Cl)c(OCC2CCCC2)cc1F (single isomer, unassigned) [Example 254] | 0.014 µM
CC[C@@H](C)S(=O)(=O)NC(=O)c1cc(Cl)c(OCC2CCCC2)cc1F (single isomer, unassigned) [Example 255] | 0.026 µM
CN1CC[C@H](OC2CCN(S(=O)(=O)NC(=O)c3cc(Cl)c(OCC4CCCC4)cc3F)CC2)C1 (single isomer, unassigned) [Example 326] | 0.23 µM
O=C(NS(=O)(=O)N1CCC(OC2CCNC2)CC1)c1cc(C2CC2)c(OCC2CCCC2)cc1F (stereo in doubt) [Example 30, (S)-4-(cyclopentylmethoxy)-5-cyclopropyl-2-fluoro-N-((4-(pyrrolidin-3-yloxy)piperidin-1-yl)sulfonyl)benzamide 2,2,2-trifluoroacetate] | 0.016 µM
O=C(NS(=O)(=O)c1ccc(OCC2CCNC2)cc1)c1cc(Cl)c(OCC2CCCC2)cc1F (stereo in doubt) [Example 302, (R)-5-chloro-4-(cyclopentylmethoxy)-2-fluoro-N-((4-(pyrrolidin-3-ylmethoxy)phenyl)sulfonyl)benzamide] | 0.12 µM
C[C@H]1CCc2ccccc2N1S(=O)(=O)NC(=O)c1cc(Cl)c(OCC2CCCC2)cc1F [(S) enantiomer of Example 18] | 0.5 µM
CN1CC(OC2CCN(S(=O)(=O)NC(=O)c3cc(Cl)c(OCC4CCCC4)cc3F)CC2)C1 [Example 1, 5-chloro-4-(cyclopentylmethoxy)-2-fluoro-N-((4-((1-methylazetidin-3-yl)oxy)piperidin-1-yl)sulfonyl)benzamide] | 0.11 µM
Cc1cc(C(=O)NS(=O)(=O)N2CCC(OC3CN(C)C3)CC2)c(F)cc1OCC1CCCC1 [Example 2, 4-(cyclopentylmethoxy)-2-fluoro-5-methyl-N-((4-((1-methylazetidin-3-yl)oxy)piperidin-1-yl)sulfonyl)benzamide] | 0.064 µM
CCc1cc(C(=O)NS(=O)(=O)N2CCC(OC3CN(C)C3)CC2)c(F)cc1OCC1CCCC1 [Example 3, 4-(cyclopentylmethoxy)-5-ethyl-2-fluoro-N-((4-((1-methylazetidin-3-yl)oxy)piperidin-1-yl)sulfonyl) benzamide] | 0.022 µM
CN1CC(OC2CCN(S(=O)(=O)NC(=O)c3cc(C4CC4)c(OCC4CCCC4)cc3F)CC2)C1 [Example 4, 4-(cyclopentylmethoxy)-5-cyclopropyl-2-fluoro-N-((4-((1-methylazetidin-3-yl)oxy)piperidin-1-yl)sulfonyl) benzamide] | 0.015 µM
CC(C)c1cc(C(=O)NS(=O)(=O)N2CCC(OC3CN(C)C3)CC2)c(F)cc1OCC1CCCC1 [Example 5, 4-(cyclopentylmethoxy)-2-fluoro-5-isopropyl-N-((4-((1-methylazetidin-3-yl)oxy)piperidin-1-yl)sulfonyl)benzamide] | 0.039 µM
COc1cc(C(=O)NS(=O)(=O)N2CCC(OC3CN(C)C3)CC2)c(F)cc1OCC1CCCC1 [Example 6, 4-(cyclopentylmethoxy)-2-fluoro-5-methoxy-N-((4-((1-methylazetidin-3-yl)oxy)piperidin-1-yl)sulfonyl) benzamide] | 0.32 µM
CN1CC(OC2CCN(S(=O)(=O)NC(=O)c3cc(C4CCC4)c(OCC4CCCC4)cc3F)CC2)C1 [Example 7, 5-cyclobutyl-4-(cyclopentylmethoxy)-2-fluoro-N-((4-((1-methylazetidin-3-yl)oxy)piperidin-1-yl)sulfonyl)benzamide 2,2,2-trifluoroacetate] | 0.008 µM
CN1CC(OC2CCN(S(=O)(=O)NC(=O)c3cc(C4CC4)c(OCC4CC4)cc3F)CC2)C1 [Example 9, 5-cyclopropyl-4-(cyclopropylmethoxy)-2-fluoro-N-((4-((1-methylazetidin-3-yl)oxy)piperidin-1-yl)sulfonyl)benzamide] | 0.059 µM
CC(C)N1CC(OC2CCN(S(=O)(=O)NC(=O)c3cc(Cl)c(OCC4CCCC4)cc3F)CC2)C1 [Example 10, 5-chloro-4-(cyclopentylmethoxy)-2-fluoro-N-((4-((1-isopropylazetidin-3-yl)oxy)piperidin-1-yl)sulfonyl)benzamide] | 0.031 µM
O=C(NS(=O)(=O)N1CCC(OC2CN(C3COC3)C2)CC1)c1cc(Cl)c(OCC2CCCC2)cc1F [Example 11, 5-chloro-4-(cyclopentylmethoxy)-2-fluoro-N-((4-((1-(oxetan-3-yl)azetidin-3-yl)oxy)piperidin-1-yl)sulfonyl)benzamide] | 0.13 µM

SMILES | IC50
O=C(NS(=O)(=O)N1CCC(OC2CN(C3CC3)C2)CC1)c1cc(Cl)c(OCC2CCCC2)cc1F [Example 12, 5-chloro-4-(cyclopentylmethoxy)-N-((4-((1-cyclopropylazetidin-3-yl)oxy)piperidin-1-yl)sulfonyl)-2-fluorobenzamide] | 0.029 µM
O=C(NS(=O)(=O)N1CCC(OC2CN(CC(F)(F)F)C2)CC1)c1cc(Cl)c(OCC2CCCC2)cc1F [Example 13, 5-chloro-4-(cyclopentylmethoxy)-2-fluoro-N-((4-((1-(2,2,2-trifluoroethyl)azetidin-3-yl)oxy)piperidin-1-yl)sulfonyl)benzamide] | 0.24 µM
O=C(NS(=O)(=O)N1CCCc2ccccc21)c1cc(Cl)c(OCC2CCCC2)cc1F [Example 14, 5-chloro-4-(cyclopentylmethoxy)-N-((3,4-dihydroquinolin-1(2H)-yl)sulfonyl)-2-fluorobenzamide] | 0.078 µM
O=C(NS(=O)(=O)N1CCCc2cccnc21)c1cc(Cl)c(OCC2CCCC2)cc1F [Example 15, 5-chloro-4-(cyclopentylmethoxy)-N-((3,4-dihydro-1,8-naphthyridin-1(2H)-yl)sulfonyl)-2-fluorobenzamide] | 0.11 µM
O=C(NS(=O)(=O)N1CCc2ccccc2C1)c1cc(Cl)c(OCC2CCCC2)cc1F [Example 19, 5-chloro-4-(cyclopentylmethoxy)-N-((3,4-dihydroisoquinolin-2(1H)-yl)sulfonyl)-2-fluorobenzamide] | 0.31 µM
COC1CCN(S(=O)(=O)NC(=O)c2cc(Cl)c(OCC3CCCC3)cc2F)CC1 [Example 20, 5-chloro-4-(cyclopentylmethoxy)-2-fluoro-N-((4-methoxypiperidin-1-yl)sulfonyl)benzamide] | 0.049 µM
O=C(NS(=O)(=O)N1CCCCC1)c1cc(Cl)c(OCC2CCCC2)cc1F [Example 21, 5-chloro-4-(cyclopentylmethoxy)-2-fluoro-N-(piperidin-1-ylsulfonyl)benzamide] | 0.014 µM
O=C(NS(=O)(=O)N1CCCC1)c1cc(Cl)c(OCC2CCCC2)cc1F [Example 22, 5-chloro-4-(cyclopentylmethoxy)-2-fluoro-N-(pyrrolidin-1-ylsulfonyl)-benzamide] | 0.0091 µM
O=C(NS(=O)(=O)N1CCN2CCNCC2C1)c1cc(Cl)c(OCC2CCCC2)cc1F (stereo not shown) [Example 23, 5-chloro-4-(cyclopentylmethoxy)-2-fluoro-N-((octahydro-2H-pyrazino[1,2-a]pyrazin-2-yl)sulfonyl)benzamide] | 0.11 µM
O=C(NS(=O)(=O)N1CCC(CC2CNC2)CC1)c1cc(Cl)c(OCC2CCCC2)cc1F [Example 40, N-((4-(azetidin-3-ylmethyl)piperidin-1-yl)sulfonyl)-5-chloro-4-(cyclopentylmethoxy)-2-fluorobenzamide 2,2,2-trifluoroacetate] | 0.059 µM
O=C(NS(=O)(=O)N1CCC(OCc2ccccc2)CC1)c1cc(Cl)c(OCC2CCCC2)cc1F [Example 41, N-((4-(benzyloxy)piperidin-1-yl)sulfonyl)-5-chloro-4-(cyclopentylmethoxy)-2-fluorobenzamide] | 0.17 µM
O=C(NS(=O)(=O)N1CCC(OC2CNC2)CC1)c1cc(Cl)c(OCC2CCCC2)cc1F [Example 46, N-((4-(azetidin-3-yloxy)piperidin-1-yl)sulfonyl)-5-chloro-4-(cyclopentyl-methoxy)-2-fluorobenzamide] | 0.25 µM
O=C(NS(=O)(=O)N1CCC(OC2CNC2)CC1)c1cc(C2CC2)c(OCC2CCCC2)cc1F [Example 47, N-((4-(azetidin-3-yloxy)piperidin-1-yl)sulfonyl)-4-(cyclopentylmethoxy)-5-cyclopropyl-2-fluorobenzamide] | 0.036 µM
O=C(NS(=O)(=O)N1CC(OC2CCNCC2)C1)c1cc(Cl)c(OCC2CCCC2)cc1F [Example 50, 5-chloro-4-(cyclopentylmethoxy)-2-fluoro-N-((3-(piperidin-4-yloxy)azetidin-1-yl)sulfonyl)benzamide] | 0.26 µM
CN1CCCC(OC2CCN(S(=O)(=O)NC(=O)c3cc(Cl)c(OCC4CCCC4)cc3F)CC2)C1 (stereo not shown) [Example 52, 5-chloro-4-(cyclopentylmethoxy)-2-fluoro-N-((4-((1-methylpiperidin-3-yl)oxy)piperidin-1-yl)sulfonyl) benzamide] | 0.17 µM
O=C(NS(=O)(=O)N1CCC(OC2CCNCC2)CC1)c1cc(Cl)c(OCC2CCCC2)cc1F [Example 53, 5-chloro-4-(cyclopentylmethoxy)-2-fluoro-N-((4-(piperidin-4-yloxy)piperidin-1-yl)sulfonyl) benzamide] | 0.25 µM
CN(C)[C@H]1CCCC[C@@H]1Nc1ccc(S(=O)(=O)NC(=O)c2ccc(OCC3CCCC3)c(Cl)c2)c(F)c1 [Example 57, 3-chloro-4-(cyclopentylmethoxy)-N-((4-(((1S,2S)-2-(dimethylamino)-cyclohexyl)amino)-2-fluorophenyl)sulfonyl)benzamide formate] | 0.54 µM
O=C(NS(=O)(=O)c1c(F)cc(N2CCCCC2)cc1F)c1cc(Cl)c(OCC2CCCC2)cc1F [Example 58, 5-chloro-4-(cyclopentylmethoxy)-N-((2,6-difluoro-4-(piperidin-1-yl)phenyl)-sulfonyl)-2-fluorobenzamide] | 0.32 µM
